{
  "source": "ChEMBL document CHEMBL2074007",
  "about": "“Characterization of the transport of nucleoside analog drugs by the human multidrug resistance proteins MRP4 and MRP5” (Mol Pharmacol, 2003)",
  "key": {"[1]": {"target": "ATP-binding cassette sub-family C member 5 (Homo sapiens, UniProt O15440)", "sequence (O15440 whole entry)": "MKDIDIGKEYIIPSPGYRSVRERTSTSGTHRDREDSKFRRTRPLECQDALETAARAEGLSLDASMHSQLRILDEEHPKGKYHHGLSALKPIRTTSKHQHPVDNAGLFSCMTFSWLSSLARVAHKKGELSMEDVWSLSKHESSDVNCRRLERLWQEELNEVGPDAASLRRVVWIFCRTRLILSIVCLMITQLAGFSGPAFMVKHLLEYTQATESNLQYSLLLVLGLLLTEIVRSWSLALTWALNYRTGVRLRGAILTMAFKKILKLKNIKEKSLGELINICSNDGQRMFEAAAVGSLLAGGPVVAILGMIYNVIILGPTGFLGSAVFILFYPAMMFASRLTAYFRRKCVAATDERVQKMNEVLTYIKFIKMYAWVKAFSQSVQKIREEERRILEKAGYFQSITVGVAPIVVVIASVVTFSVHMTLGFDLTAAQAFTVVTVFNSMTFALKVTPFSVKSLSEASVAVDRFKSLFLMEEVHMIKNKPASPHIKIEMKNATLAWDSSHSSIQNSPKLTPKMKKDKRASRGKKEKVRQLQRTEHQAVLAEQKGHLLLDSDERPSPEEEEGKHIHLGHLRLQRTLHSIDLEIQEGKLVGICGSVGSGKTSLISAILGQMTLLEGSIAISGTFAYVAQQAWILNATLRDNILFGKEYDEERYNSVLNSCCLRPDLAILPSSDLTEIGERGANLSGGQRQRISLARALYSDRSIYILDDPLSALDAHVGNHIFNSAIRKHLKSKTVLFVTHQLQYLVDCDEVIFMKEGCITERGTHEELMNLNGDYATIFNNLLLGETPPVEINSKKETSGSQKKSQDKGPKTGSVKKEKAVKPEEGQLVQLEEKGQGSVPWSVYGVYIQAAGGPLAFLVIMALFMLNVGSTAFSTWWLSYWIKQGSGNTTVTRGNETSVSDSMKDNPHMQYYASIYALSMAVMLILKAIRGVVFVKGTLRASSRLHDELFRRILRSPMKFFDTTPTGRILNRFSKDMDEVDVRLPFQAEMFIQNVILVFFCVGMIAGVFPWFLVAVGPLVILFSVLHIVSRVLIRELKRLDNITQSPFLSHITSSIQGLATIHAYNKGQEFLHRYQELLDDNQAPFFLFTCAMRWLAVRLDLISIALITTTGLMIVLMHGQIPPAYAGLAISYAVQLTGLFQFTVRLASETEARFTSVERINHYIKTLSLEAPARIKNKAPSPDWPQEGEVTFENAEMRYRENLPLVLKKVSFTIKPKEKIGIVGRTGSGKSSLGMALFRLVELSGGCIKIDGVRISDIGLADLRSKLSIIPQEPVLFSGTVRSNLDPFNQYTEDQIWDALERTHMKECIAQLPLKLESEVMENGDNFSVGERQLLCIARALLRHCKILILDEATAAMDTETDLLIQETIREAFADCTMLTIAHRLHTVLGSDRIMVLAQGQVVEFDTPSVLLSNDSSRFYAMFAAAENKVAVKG", "assay_type": "functional, cell-based, HEK293"}, "[2]": {"target": "T1, ATP-binding cassette sub-family C member 4 (Homo sapiens, UniProt O15439)", "T1 sequence (O15439 whole entry)": "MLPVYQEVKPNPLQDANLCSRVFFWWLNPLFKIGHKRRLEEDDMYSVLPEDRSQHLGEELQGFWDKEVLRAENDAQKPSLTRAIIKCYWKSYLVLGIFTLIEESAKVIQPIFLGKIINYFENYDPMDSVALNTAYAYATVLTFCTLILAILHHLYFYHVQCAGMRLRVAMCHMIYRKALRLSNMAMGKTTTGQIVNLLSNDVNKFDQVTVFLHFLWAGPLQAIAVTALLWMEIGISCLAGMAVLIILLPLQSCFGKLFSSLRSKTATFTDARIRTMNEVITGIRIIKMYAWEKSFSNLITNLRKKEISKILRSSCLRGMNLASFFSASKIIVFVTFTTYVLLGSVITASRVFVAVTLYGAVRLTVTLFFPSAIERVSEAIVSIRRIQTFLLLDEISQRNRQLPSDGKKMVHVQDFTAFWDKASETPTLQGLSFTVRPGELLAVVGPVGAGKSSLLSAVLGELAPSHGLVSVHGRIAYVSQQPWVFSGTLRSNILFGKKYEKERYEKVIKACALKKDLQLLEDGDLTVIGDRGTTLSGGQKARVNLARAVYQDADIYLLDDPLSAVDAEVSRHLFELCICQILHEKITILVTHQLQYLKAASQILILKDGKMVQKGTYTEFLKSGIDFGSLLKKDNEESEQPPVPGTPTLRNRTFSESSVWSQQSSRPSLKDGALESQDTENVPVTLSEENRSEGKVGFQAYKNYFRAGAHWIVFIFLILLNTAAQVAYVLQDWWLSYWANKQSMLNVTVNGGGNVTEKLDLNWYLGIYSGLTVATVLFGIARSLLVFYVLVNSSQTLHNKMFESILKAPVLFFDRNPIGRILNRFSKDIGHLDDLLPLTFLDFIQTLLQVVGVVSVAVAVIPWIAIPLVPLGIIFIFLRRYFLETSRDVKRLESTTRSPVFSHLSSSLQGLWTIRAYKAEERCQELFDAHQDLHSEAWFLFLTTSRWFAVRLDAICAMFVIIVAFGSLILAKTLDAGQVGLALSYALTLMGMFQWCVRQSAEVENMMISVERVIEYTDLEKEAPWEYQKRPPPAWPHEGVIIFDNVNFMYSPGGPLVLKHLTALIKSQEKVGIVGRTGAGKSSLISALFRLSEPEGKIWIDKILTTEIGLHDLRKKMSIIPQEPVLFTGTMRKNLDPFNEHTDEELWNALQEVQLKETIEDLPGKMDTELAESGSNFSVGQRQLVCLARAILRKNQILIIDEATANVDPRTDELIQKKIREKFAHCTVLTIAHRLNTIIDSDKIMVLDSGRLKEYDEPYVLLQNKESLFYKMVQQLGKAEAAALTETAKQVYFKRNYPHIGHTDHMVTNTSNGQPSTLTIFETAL", "assay_type": "functional, cell-based, HEK293"}, "[3]": {"target": "MRP5 (ABCC5) (Homo sapiens, UniProt O15440)", "sequence (O15440 whole entry)": "as the sequence (O15440 whole entry) above", "test": "TP_TRANSPORTER: inhibition of alaninyl-d4TMP uptake (alaninyl-d4TMP: 1 uM, Zaprinast: 100uM) in MRP5-expressing HEK293 cells", "assay_type": "functional, cell-based", "set-up": "scale not given: the % may be the effect or the level left", "conditions": "probe alaninyl-d4TMP (1 uM), read-out: Activity"}, "[4]": {"target": "T2, MRP4 (ABCC4) (Homo sapiens, UniProt O15439)", "T2 sequence (O15439 whole entry)": "T1 sequence (O15439 whole entry)", "test": "TP_TRANSPORTER: inhibition of E217betaG uptake (E217betaG: 30 uM, Zaprinast: 100uM) in MRP4-expressing HEK293 cells", "assay_type": "functional, cell-based", "set-up": "scale not given: the % may be the effect or the level left", "conditions": "probe E217betaG (30 uM), read-out: Activity"}},
  "data": [
    {"smiles": "CN(C)C(=O)CCSC(SCCC(=O)O)c1cccc(/C=C/c2ccc3ccc(Cl)cc3n2)c1", "note": "(stereo not given) [MK-571]", "values": [
      {"measurement": "IC50", "setting": "[1]", "value": 40, "unit": "µM"}
    ]},
    {"smiles": "O=[N+]([O-])c1ccc(CSc2ncnc3c2ncn3[C@@H]2O[C@H](CO)[C@@H](O)[C@H]2O)cc1", "note": "[NITROBENZYLMERCAPTOPURINE RIBONUCLEOSIDE]", "values": [
      {"measurement": "IC50", "setting": "[2]", "value": 75, "unit": "µM"}
    ]},
    {"smiles": "COc1cc2c(cc1OC)-c1c/c(=N\\c3c(C)cc(C)cc3C)n(C)c(=O)n1CC2", "note": "[TREQUINSIN]", "values": [
      {"measurement": "IC50", "setting": "[2]", "value": 10, "unit": "µM"},
      {"measurement": "IC50", "setting": "[1]", "value": 30, "unit": "µM"}
    ]},
    {"smiles": "COc1cc(C(=O)OCCCN2CCCN(CCCOC(=O)c3cc(OC)c(OC)c(OC)c3)CC2)cc(OC)c1OC", "note": "[DILAZEP]", "values": [
      {"measurement": "IC50", "setting": "[2]", "value": 20, "unit": "µM"},
      {"measurement": "IC50", "setting": "[1]", "value": "> 50", "unit": "µM"}
    ]},
    {"smiles": "CCCOc1ccccc1-c1nc2nn[nH]c2c(=O)[nH]1", "note": "[ZAPRINAST]", "values": [
      {"measurement": "activity at 100 µM", "setting": "[3]", "value": 12, "unit": "%"},
      {"measurement": "activity at 100 µM", "setting": "[4]", "value": 7, "unit": "%"}
    ]},
    {"smiles": "Nc1nc2c(ncn2[C@@H]2O[C@@H]3COP(=O)(O)O[C@H]3[C@H]2O)c(=O)[nH]1", "values": [
      {"measurement": "activity at 100 µM", "setting": "[3]", "value": 37, "unit": "%"},
      {"measurement": "activity at 100 µM", "setting": "[4]", "value": 48, "unit": "%"}
    ]}
  ]
}
